Values after ≈ are worked out from the molar mass of the structure shown. Read-outs that look alike come from different tables or passages of the source. Bounds are passed on as bounds.

The record followed here is article PMC6689975, “Novel Cell Wall Antifungals Reveal a Special Synergistic Activity in pbr1 Mutants Resistant to the Glucan Synthesis Antifungals Papulacandins and Echinocandins” (Frontiers in Microbiology, 2019).

Holding throughout (assay): microbe, parasite or virus in culture
The subject of experiment [1] is C. albicans wild-type. Set-up: species or system whole yeast cells; macro tube broth dilution MIC in YEPD at 30 C, visual clearness of medium. The note with it: Candida albicans, 48 h, read-out: MIC. As to the method:
(§1) Standard YEPD (Yeast Extract, Peptone, Dextrose) ([Sherman, 1990]), YEPD+S (YEPD with 1.2M sorbitol), YES (Yeast Extract, Dextrose and Supplements of Adenine, Histidine, Leucine, Uracil and Lysine) ([Alfa et al., 1993]) and YES+S (YES with 1.2 M sorbitol) ([Ribas et al., 1991]; [Ishiguro et al., 1997]), media were used for determination of MIC values of the tested compounds. A stock solution of 10 mg/ml of each tested compounds was prepared in DMSO and serial dilutions in DMSO were prepared. The final concentration of DMSO was 2% in the YEPD medium. […] The serial dilutions of compounds were dispensed into test tubes with 1 ml of YEPD or YEPD+S to make final concentrations of 200, 100, 50, 25, 12.5, 6.26, 3.125, 1.6, 0.8 and 0.4 μg/ml. The tested yeast strains were previously grown in YEPD, YEPD+S, YES or YES+S agar plates at 30°C for 48 h. For inoculation of YEPD or YEPD+S macro test tubes a suspension of tested fungus was produced with 10^5 cfu/ml (cfu - colony forming unit). 10 μl of suspension was used for inoculation of each tube. After 48 h incubation at 30°C the tubes were checked. The MIC value is the lowest concentration of the tested compound that could inhibit the fungal growth and the medium remained clear. From each tube 10 μl culture was plated on YEPD agar medium to check the contamination. The MIC tests were carried out in three parallels. The screening of the first generation of isochromanones was carried out in YEPD and YEPD+S media (1E-16E). The fungal strains analyzed are: C. albicans wild-type ATCC 26555, SC5314 and ATCC 90028, S. cerevisiae wild-type CVX12-3A and pbr1-1 mutant, and S. pombe wild-type (972h^–), pbr1-8 mutant and pbr1-6 mutant. The bold numbers in Tables 4–6 indicate the more efficient compounds. […] The weak or moderate efficacy against the C. albicans wild-type strains was observed by some substances (3E, 4Z, 5Z, 10E, 15, and 16E). The efficiency toward the S. pombe pbr1-6 mutant strain was the highest inhibitory activity, except 7E, 11E, 12 and 14E. […] As regards the other S. pombe pbr1-8 mutant strain, the antifungal activity of the tested compounds was slightly lower, but the substances with the best activity are partly identical to the best compounds mentioned with pbr1-6, (i.e., 1E, 3E, 4Z, 5Z).

The subject of experiment [2] is T1, S. cerevisiae wild-type CVX12-3A.
T1 construct: CVX12-3A
Also noted: species or system whole yeast cells; macro tube broth dilution MIC in YEPD at 30 C, visual clearness of medium. The note with it: Saccharomyces cerevisiae, 48 h, read-out: MIC. As for the experimental part: as §1

The subject of experiment [3] is T2, S. pombe wild-type 972 h-.
T2 construct: 972 h-
Also noted: species or system whole yeast cells; macro tube broth dilution MIC in YEPD at 30 C, visual clearness of medium. The note with it: Schizosaccharomyces pombe, 48 h, read-out: MIC. As to the method: as §1

For experiment [4], the system named is C. albicans wild-type. Set-up: species or system whole yeast cells; macro tube broth dilution MIC in YEPD at 30 C, visual clearness of medium. The note with it: Candida albicans, 48 h, read-out: MIC. As for the experimental part:
as §1
The source holds these as a separate data set.

The test system of experiment [5] is C. albicans wild-type. Set-up: species or system whole yeast cells; macro tube broth dilution MIC in YEPD at 30 C, visual clearness of medium. The note with it: Candida albicans, 48 h, read-out: MIC. As for the experimental part:
as §1
The source holds these as a separate data set.

Experiment [6] concerns C. albicans wild-type. Also noted: species or system whole yeast cells; micro-culture broth dilution MIC in YES at 30 C, turbidity, complete growth inhibition. The note with it: Candida albicans, read-out: MIC. As for the experimental part: (§2) Standard YEPD (Yeast Extract, Peptone, Dextrose) ([Sherman, 1990]), YEPD+S (YEPD with 1.2M sorbitol), YES (Yeast Extract, Dextrose and Supplements of Adenine, Histidine, Leucine, Uracil and Lysine) ([Alfa et al., 1993]) and YES+S (YES with 1.2 M sorbitol) ([Ribas et al., 1991]; [Ishiguro et al., 1997]), media were used for determination of MIC values of the tested compounds. A stock solution of 10 mg/ml of each tested compounds was prepared in DMSO and serial dilutions in DMSO were prepared. The final concentration of DMSO was 2% in the YEPD medium. […] The serial dilutions of compounds were dispensed into test tubes with 1 ml of YEPD or YEPD+S to make final concentrations of 200, 100, 50, 25, 12.5, 6.26, 3.125, 1.6, 0.8 and 0.4 μg/ml. The tested yeast strains were previously grown in YEPD, YEPD+S, YES or YES+S agar plates at 30°C for 48 h. Micro-culture assays of large numbers of samples were analyzed as described) ([Martins et al., 2011]). Essentially early log-phase cells were grown in YEPD, YEPD+S, YES or YES+S (1.2 M sorbitol) medium at 30°C, and diluted to cell density of 4 X 10^6 cells/ml in YEPD, YEPD+S, YES or YES+S medium and aliquots of 100 μl were dispensed into each small test tube (3 ml test tube size). Then, another 100 μl of YEPD, YEPD+S, YES or YES+S with the corresponding dilution of each compound at 2X concentration (4% DMSO) was added. The final volume was 200 μl, with the cells diluted to of 2 X 10^6 cells/ml and each compound diluted to 1X final concentration, containing increasing concentrations of antifungal (0, 1, 2, 5, 10, 20, 50, 100 and 200 μg/ml) or an equivalent volume of solvent (2% DMSO). The cells were grown at 30°C in an orbital roller and turbidity was analyzed after 24 and 48 h of incubation. The MIC was determined as the minimal concentration of tested compound that produced complete cell growth inhibition and kept the medium clear. The MIC values were calculated from at least three independent experiments. Next, the first generation of isochromanones (1E-16E) was also screened in YES medium (Table 5) and exerted a weaker antifungal potency than in YEPD medium and also than the second family of isochromanones in YES medium (17E-30E) (Table 6). The strains are partly different from the previously mentioned ones (Tables 5, 6) analyzing two wild type C. albicans strains because they behaved similarly in YEPD. It is remarkable that there was no effect against either the C. albicans, the S. cerevisiae, or the S. pombe wild-type strains, except with 30E.

For experiment [7], the system named is T1, S. cerevisiae wild-type CVX12-3A. Also noted: species or system whole yeast cells; micro-culture broth dilution MIC in YES at 30 C, turbidity, complete growth inhibition. The note with it: Saccharomyces cerevisiae, read-out: MIC. As for the experimental part: as §2
Experiment [8] has as its system T2, S. pombe wild-type 972 h-. Set-up: species or system whole yeast cells; micro-culture broth dilution MIC in YES at 30 C, turbidity, complete growth inhibition. The note with it: Schizosaccharomyces pombe, read-out: MIC. As for the experimental part: as §2
The subject of experiment [9] is C. albicans wild-type. Set-up: species or system whole yeast cells; micro-culture broth dilution MIC in YES at 30 C, turbidity, complete growth inhibition. The note with it: Candida albicans, read-out: MIC. As to the method: as §2
The source holds these as a separate data set.

Take `O=C1OCc2ccccc2/C1=C\c1cccnc1` [3E]: the MIC with C. albicans wild-type [1] is 100 µg/mL (≈ 421 µM); in experiment [2] it was 50 µg/mL (≈ 211 µM); in [3], 25 µg/mL (≈ 105 µM); in the experiment with C. albicans wild-type [4], 100 µg/mL (≈ 421 µM); in the experiment with C. albicans wild-type [5], 50 µg/mL (≈ 211 µM); with C. albicans wild-type [6], over 200 µg/mL. The MIC in experiment [7] and in experiment [8] was 200 µg/mL (≈ 843 µM) each time.
As to `O=C1OCc2ccccc2/C1=C/c1cccc([N+](=O)[O-])c1` [24Z], the MIC (in the experiment on C. albicans wild-type [6]; in experiment [7]; in [8]; with C. albicans wild-type [9]) was over 200 µg/mL in each case.
For `O=C1OCc2ccccc2/C1=C\c1ccccc1` [1E], the MIC in the experiment on C. albicans wild-type [1] is 200 µg/mL (≈ 846 µM); in [2], 100 µg/mL (≈ 423 µM); in experiment [3], 25 µg/mL (≈ 106 µM); in the experiment on C. albicans wild-type [4], 200 µg/mL (≈ 846 µM); in the experiment on C. albicans wild-type [5] it was 200 µg/mL (≈ 846 µM); in the experiment with C. albicans wild-type [6] it was over 200 µg/mL. Also, the MIC in experiment [7] and in experiment [8] was over 200 µg/mL in each case.
Take `COc1cccc(/C=C2/C(=O)OCc3ccccc32)c1OC` [9E]: the MIC was 100 µg/mL (≈ 337 µM) with C. albicans wild-type [1]; 100 µg/mL (≈ 337 µM) in experiment [2]; 50 µg/mL (≈ 169 µM) in [3]; 100 µg/mL (≈ 337 µM) in the experiment on C. albicans wild-type [4]; 100 µg/mL (≈ 337 µM) with C. albicans wild-type [5]; over 200 µg/mL in the experiment on C. albicans wild-type [6]. For the same compound, the MIC in experiment [7] and in experiment [8] was over 200 µg/mL throughout.
Regarding `COc1cc(/C=C2/C(=O)OCc3ccccc32)ccc1O` [30E, E-4-[(4′-Hydroxy-3′-Methoxyphenyl)Methylene]-3-Isochromanone], the MIC in the experiment on C. albicans wild-type [6] was over 200 µg/mL; in [7], 150 µg/mL (≈ 531 µM); in experiment [8], 150 µg/mL (≈ 531 µM); with C. albicans wild-type [9], over 200 µg/mL.
As to `COc1cc(/C=C2/C(=O)OCc3ccccc32)cc(OC)c1OC` [25E], the MIC (with C. albicans wild-type [6]; in experiment [7]; in experiment [8]; in the experiment on C. albicans wild-type [9]) was over 200 µg/mL in each case.
Consider `O=C1OCc2ccccc2/C1=C\c1ccccc1[N+](=O)[O-]` [11E], for which the MIC is over 200 µg/mL in the experiment with C. albicans wild-type [1]; 200 µg/mL (≈ 711 µM) in [2]; 100 µg/mL (≈ 356 µM) in experiment [3]; over 200 µg/mL in the experiment on C. albicans wild-type [4]; over 200 µg/mL with C. albicans wild-type [5]; over 200 µg/mL in the experiment on C. albicans wild-type [6]. Besides, the MIC in experiment [7] and in [8] was over 200 µg/mL each time.
For the compound `O=C1OCc2ccccc2/C1=C\c1ccccc1Br` [14E], the MIC was 200 µg/mL (≈ 635 µM) in the experiment with C. albicans wild-type [1]; 25 µg/mL (≈ 79.3 µM) in experiment [2]; 50 µg/mL (≈ 159 µM) in [3]; 200 µg/mL (≈ 635 µM) in the experiment on C. albicans wild-type [4]; over 200 µg/mL in the experiment with C. albicans wild-type [5]; over 200 µg/mL with C. albicans wild-type [6]. Further, the MIC in [7] and in experiment [8] was over 200 µg/mL in each case.
With `O=C1OCc2ccccc2/C1=C\c1ccc([N+](=O)[O-])cc1` [17E, E-4-[(4′-Nitrophenyl)Methylene]-3-Isochromanone], the MIC with C. albicans wild-type [6] was over 200 µg/mL; in experiment [7], 200 µg/mL (≈ 711 µM); in [8], over 200 µg/mL; in the experiment with C. albicans wild-type [9], over 200 µg/mL.
Consider `O=C1OCc2ccccc2/C1=C/c1cccc(Cl)c1` [28Z, Z-4-[(3′-chlorophenyl)methylene]-3-isochromanone], for which the MIC (in the experiment on C. albicans wild-type [6]; in [7]; in experiment [8]; in the experiment with C. albicans wild-type [9]) was over 200 µg/mL each time.
As for `Cc1ccccc1/C=C1/C(=O)OCc2ccccc21` [20E], the MIC (with C. albicans wild-type [6]; in [7]; in experiment [8]; in the experiment on C. albicans wild-type [9]) was over 200 µg/mL in each case.
In the case of `Cc1cc(C)c(/C=C2/C(=O)OCc3ccccc32)c(C)c1` [18E], the MIC (in the experiment with C. albicans wild-type [6]; in experiment [7]; in experiment [8]; with C. albicans wild-type [9]) was over 200 µg/mL each time.
`O=C1OCc2ccccc2/C1=C\c1cccc(Cl)c1` [28E, E-4-[(3′-Chlorophenyl)Methylene]-3-Isochromanone]: the MIC (in the experiment with C. albicans wild-type [6]; in experiment [7]; in experiment [8]; with C. albicans wild-type [9]) was over 200 µg/mL throughout.
As for `COc1cccc(/C=C2/C(=O)OCc3ccccc32)c1` [22E], the MIC (in the experiment with C. albicans wild-type [6]; in experiment [7]; in [8]; with C. albicans wild-type [9]) was over 200 µg/mL throughout.
As to `O=C1OCc2ccccc2/C1=C\c1ccc(O)cc1` [29E, E-4-[(4′-Hydroxyphenyl)Methylene]-3-Isochromanone], the MIC (with C. albicans wild-type [6]; in [7]; in [8]; in the experiment with C. albicans wild-type [9]) was over 200 µg/mL each time.
Regarding `O=C1OCc2ccccc2/C1=C\c1cccc([N+](=O)[O-])c1` [24E], the MIC (in the experiment with C. albicans wild-type [6]; in experiment [7]; in experiment [8]; in the experiment with C. albicans wild-type [9]) was over 200 µg/mL each time.
For `O=C1OCc2ccccc2/C1=C\c1ccc(Cl)cc1` [23E], the MIC (with C. albicans wild-type [6]; in experiment [7]; in experiment [8]; with C. albicans wild-type [9]) was over 200 µg/mL each time.
As to `COc1ccc(/C=C2/C(=O)OCc3ccccc32)cc1OC` [26E, E-4-[(3′,4′-Dimethoxyphenyl)Methylene]-3-Isochromanone], the MIC (in the experiment on C. albicans wild-type [6]; in experiment [7]; in experiment [8]; in the experiment with C. albicans wild-type [9]) was over 200 µg/mL throughout.
